Measurements from patent US4888357A, “Antiarthritic β-cycloalkyl-β-oxopropionitriles” (Bristol-Myers Company, priority 1988, dated 1989).
Read-outs that look alike come from different tables or passages of the source.

Tests used:
[1] = test system: adjuvant-induced polyarthritis (hind paw volume); test: Modified developing adjuvant arthritis in rats (adjuvant-induced polyarthritis, AIP); format: in vivo, male Lewis rats; settings: for inhibition in vivo at 100 mg/kg: 100 mg/kg once daily p.o. d. 1-8
Protocol: A. Modified Developing Adjuvant Arthritis in Rats
This test is based on the procedure originally described by Pearson (Proc. Soc. Biol. Med., 1956, pp 91-5). Each experimental group used six male Lewis rats weighing approx. 250 gm. Arthritis was produced by a single intradermal injection of Mycobacterium butyricum (0.6 mg in 0.1 ml mineral oil) into the base of the tail. Test compounds were administered orally, once daily, starting on the day of inoculation (day 1) through day 8. The initial dosage was reduced during this period when side effects were observed. The paw volume (average of two hind paws) was measured by the merccury displacement method at least twice weekly during the course of the experiment (40 to 42 days). The efficacy of a compound was expressed as the percent reduction of hind paw volume of treated vs. untreated rats using the following equation: [formula]
^a once daily, p.o., from d. 1-8 (unless otherwise specified).
^b % Inhibition of paw edema: 0 = <25; + = 25- <40; ++ = 40-<60; +++

[2] = test system: delayed-type hypersensitivity (DTH) response; test: Delayed type hypersensitivity (DTH) response to Mycobacterium butyricum challenge in rats; format: in vivo, male Lewis rats
Protocol: C. Delayed Type Hypersensitivity (DTH)
Male Lewis rats were immunized on Day 1. Mycobacterium butyricum in mineral oil (6 mg/ml) was injected into the base of the tail at 0.1 ml per rat. A negative control group receiving an equal amount of mineral oil was included. Drug therapy was administered orally from day one to day eight. Delayed type hypersensitivity was tested on day 9. Purified protein derivative (Tuberculin PPD, Statens Seruminstitute, Tuberculin Department, DK-2300 Copenhagen S, Denmark) was dissolved in phosphate buffered saline at 2.5 mg/ml. Twenty μl (50 μg) of the PPD solution was injected intradermally into the right ear of the rat, and the conralateral ear received 20 μl of the phosphate buffered saline vehicle. Forty-eight hours after injection the thickness of both ears was measured to the nearest 0.01 mm using a hand held caliper. The difference between the thickness of right and left ears was defined as the delta value for each rat. Group means and standard errors were compared using a Dunnett's 2-tail test.

[3] = test system: adjuvant-induced arthritis; settings: J. Med. Chem., 1979, 22:1385-9; cited from earlier work
[4] = Rattus norvegicus, po, 480 h, read d. 20-22, read-out: AIP Inhib. score (% Inhibition of paw edema) d. 20-22
[5] = Rattus norvegicus, po, 960 h, read d. 40-42, read-out: AIP Inhib. score (% Inhibition of paw edema) d. 40-42

Row | SMILES | inhibition in vivo at 100 mg/kg [1, 4] | inhibition in vivo at 100 mg/kg [1, 5] | other results
1 | CNC(=O)C(C#N)C(=O)C1CC1 (stereo not drawn) [Example 1, β-Cyclopropyl-β-oxo-α-methylcarbamoylpropionitrile] | 80 to 100% | 80 to 100% | % Reduction-DTH ([2]; 10 mg/kg/d × 8 d. p.o.): 20%; % Reduction-DTH ([2]; 30 mg/kg/d × 8 d. p.o.): 41%; % Reduction-DTH ([2]; 60 mg/kg/d × 8 d. p.o.): 56%; immunomodulating activity (ability to reduce delayed hypersensitivity) ([2]; arthritic rats): exhibits immunomodulating activity
2 | N#CCC(=O)c1ccccc1 [Benzoylacetonitrile (I), Benzoylacetonitrile] | – | – | inhibition of adjuvant-induced arthritis in rats [3]: effective inhibitors of adjuvant-induced arthritis in rats
3 | CNC(=O)C(C#N)C(=O)C1CCC1 (stereo not drawn) [Example 7, β-Cyclobutyl-β-oxo-α-methylcarbamoylpropionitrile] | < 25% | 25 to 40% | –
4 | N#CC(C(=O)NC1CCC1)C(=O)C1CC1 (stereo not drawn) [Example 6, α-Cyclobutylcarbamoyl-β-cyclopropyl-β-oxopropionitrile] | 25 to 40% | 25 to 40% | –
5 | CN(C)C(=O)C(C#N)C(=O)C1CC1 (stereo not drawn) [Example 3, β-Cyclopropyl-α-dimethylcarbamoyl-β-oxopropionitrile] | 60 to 80% | 60 to 80% | –
6 | C#CCNC(=O)C(C#N)C(=O)C1CC1 (stereo not drawn) [Example 4, β-Cyclopropyl-β-oxo-α-propargylcarbamoylpropionitrile] | – | – | AIP Inhib. score (% Inhibition of paw edema) d. 40-42 ([1]; 50 mg/kg once daily p.o. d. 1-8, read d. 40-42): ++ +; inhibition in vivo at 50 mg/kg ([1]; Rattus norvegicus, po, 480 h, 50 mg/kg once daily p.o. d. 1-8, read d. 20-22, read-out: AIP Inhib. score (% Inhibition of paw edema) d. 20-22): 60 to 80%
